Test results reported in US11331299B2, “Medicinal use of serrulatane diterpenes” (The University of Sydney, priority 2016, dated 2022).

Tests used:
BRPF1-1 (h) bromodomain = target: T1, BRPF1-1 (h) bromodomain (Homo sapiens, UniProt P55201); experiment: Epigenetic binding assay, Bromodomain; conditions: 10 μM; read-out: % Inhibition of Control Specific Binding
T1 construct: Bromodomain
T1 sequence (P55201 628-732 limits assumed): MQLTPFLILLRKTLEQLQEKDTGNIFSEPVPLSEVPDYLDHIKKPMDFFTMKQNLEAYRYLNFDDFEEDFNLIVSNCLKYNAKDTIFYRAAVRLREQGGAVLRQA

BRD4(1) (h) bromodomain = target: T2, BRD4(1) (h) bromodomain (Homo sapiens, UniProt O60885); experiment: Epigenetic binding assay, Bromodomain; conditions: read-out: % Inhibition of Control Specific Binding
T2 construct: Bromodomain

UHRF1 (108-286) (h) = target: T3, UHRF1 (108-286) (h) (Homo sapiens, UniProt Q96T88); experiment: Epigenetic binding assay, PHD domain; conditions: 10 μM; read-out: % Inhibition of Control Specific Binding
T3 construct: Eurofins CEREP (France), contract laboratory
T3 sequence (Q96T88 108-286): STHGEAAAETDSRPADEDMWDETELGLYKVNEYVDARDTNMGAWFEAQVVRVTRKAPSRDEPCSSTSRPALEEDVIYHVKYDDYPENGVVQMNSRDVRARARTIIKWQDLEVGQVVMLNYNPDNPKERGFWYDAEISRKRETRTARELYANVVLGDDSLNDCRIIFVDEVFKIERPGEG

LSD1 (h) = LSD1 (h) (Homo sapiens, UniProt O60341); experiment: Epigenetic enzyme assay, Demethylases (KDMs); assay type: biochemical; conditions: read-out: % Inhibition of Control Values
HDAC11 (h) = target: T4, HDAC11 (h) (Homo sapiens, UniProt Q96DB2); experiment: Epigenetic enzyme assay, Histone deacetylase (HDACs); assay type: biochemical; conditions: read-out: % Inhibition of Control Values
T4 sequence (Q96DB2 1-347): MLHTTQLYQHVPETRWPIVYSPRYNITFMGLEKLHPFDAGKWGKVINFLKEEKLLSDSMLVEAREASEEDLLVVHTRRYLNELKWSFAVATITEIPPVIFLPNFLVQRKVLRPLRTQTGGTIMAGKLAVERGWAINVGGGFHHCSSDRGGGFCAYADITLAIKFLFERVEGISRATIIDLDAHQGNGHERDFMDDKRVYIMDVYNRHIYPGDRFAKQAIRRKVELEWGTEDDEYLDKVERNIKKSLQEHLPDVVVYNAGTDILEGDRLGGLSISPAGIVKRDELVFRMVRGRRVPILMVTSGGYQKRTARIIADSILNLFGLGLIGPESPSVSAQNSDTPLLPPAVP

[1] = target: DAPK3/ZIP (substrate histone H3 full length) (Homo sapiens, UniProt O43293); experiment: Epigenetic enzyme assay, Kinases; assay type: biochemical; conditions: read-out: % Inhibition of Control Values
Sequence of DAPK3/ZIP (substrate histone H3 full length) (O43293 whole entry): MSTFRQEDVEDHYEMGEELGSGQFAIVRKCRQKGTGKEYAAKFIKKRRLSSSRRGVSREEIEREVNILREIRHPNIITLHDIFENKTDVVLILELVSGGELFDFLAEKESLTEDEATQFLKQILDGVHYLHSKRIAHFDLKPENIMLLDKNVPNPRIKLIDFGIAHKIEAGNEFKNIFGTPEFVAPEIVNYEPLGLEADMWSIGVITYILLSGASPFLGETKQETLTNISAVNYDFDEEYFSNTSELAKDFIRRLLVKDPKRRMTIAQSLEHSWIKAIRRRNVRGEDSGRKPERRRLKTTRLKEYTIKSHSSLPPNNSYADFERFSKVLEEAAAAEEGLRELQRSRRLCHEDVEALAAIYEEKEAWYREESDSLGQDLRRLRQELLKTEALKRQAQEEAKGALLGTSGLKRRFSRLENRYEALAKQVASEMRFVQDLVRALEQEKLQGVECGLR

[2] = test system: 43 cancer cell lines and one normal cell line; experiment: In vitro cell viability assay (intracellular ATP, 72 hour); assay type: cell-based; conditions: 10 μM
[3] = LL/2 (Non-Small Cell Lung Cancer)
[4] = NCI-H460 (Non-Small Cell Lung Cancer)
[5] = PC-6 (Non-Small Cell Lung Cancer)

CC(C)=CCC[C@@H]1C(O)Oc2c(C)cc(O)c3c2[C@H]1CC[C@H]3C (stereo partly drawn) [Compound 2, 5,18-epoxyserrulat-14-en-8,18-diol]
inhibition at 10 µM (BRPF1-1 (h) bromodomain): -25% | inhibition at 10 µM (BRD4(1) (h) bromodomain): 11% | inhibition at 10 µM (UHRF1 (108-286) (h)): 34% | inhibition at 10 µM (LSD1 (h)): 10% | inhibition at 10 µM (HDAC11 (h)): -47% | inhibition at 10 µM [1]: 9% | effect on cell viability ([2]; remaining cell lines (other than HL-60)): no significant effect | % Cell growth ([2]; 4T1 (Breast Cancer)): 60% | % Cell growth ([2]; A375 (Skin)): 74% | % Cell growth ([2]; A-431 (Skin)): 100% | % Cell growth ([2]; A-498 (Kidney Cancer)): 91% | % Cell growth ([2]; ACHN (Kidney Cancer)): 101% | % Cell growth ([2]; B16-F0 (Melanoma)): 123% | % Cell growth ([2]; BT474 (Breast Cancer)): 118% | % Cell growth ([2]; CT26.WT (Colon Cancer)): 120% | % Cell growth ([2]; DLD-1 (Colon Cancer)): 95% | % Cell growth ([2]; H33HJ-JA1 (Lymphoma)): 57% | % Cell growth ([2]; HC-4 (Liver Cancer)): 104% | % Cell growth ([2]; HCT-15 (Colon Cancer)): 94% | % Cell growth ([2]; HCT-116 (Colon Cancer)): 81% | % Cell growth ([2]; HT-29 (Colon Cancer)): 107% | % Cell growth ([2]; Hep3B (Liver Cancer)): 87% | % Cell growth ([2]; HepG2 (Liver Cancer)): 95% | % Cell growth ([2]; K-562 (Leukemia)): 69% | % Cell growth ([2]; KATO III (Stomach)): 84% | % Cell growth [2, 3]: 105% | % Cell growth ([2]; LNCaP (Prostrate Cancer)): 73% | % Cell growth ([2]; MCF7 (Breast Cancer)): 114% | % Cell growth ([2]; MCF-7 AdrR (Breast Cancer)): 92% | % Cell growth ([2]; MDA-MB-231 (Breast Cancer)): 97% | % Cell growth ([2]; MDA-MB-468 (Breast Cancer)): 37% | % Cell growth ([2]; MES-SA (Uterus)): 75% | % Cell growth ([2]; MIA PaCa-2 (Pancreas)): 92% | % Cell growth ([2]; MOLT-4 (Leukemia)): 38% | % Cell growth ([2]; MV-411 (Leukemia)): 37% | % Cell growth [2, 4]: 88% | % Cell growth ([2]; OVCAR-3 (Ovarian Cancer)): 67% | % Cell growth ([2]; PANC-1 (Pancreas)): 87% | % Cell growth ([2]; PC-3 (Prostrate Cancer)): 99% | % Cell growth [2, 5]: 92% | % Cell growth ([2]; Ramos (Lymphoma)): 33% | % Cell growth ([2]; SK-MEL-5 (Melanoma)): 95% | % Cell growth ([2]; SK-N-MC (Brain)): 73% | % Cell growth ([2]; SK-OV-3 (Ovarian Cancer)): 82% | % Cell growth ([2]; SW-620 (Colon Cancer)): 97% | % Cell growth ([2]; T-47D (Breast Cancer)): 104% | % Cell growth ([2]; U937 (Lymphoma)): 102% | % Cell growth ([2]; U-87 MG (Brain)): 101%

CC(C)=CCC[C@@H]1COc2c(C)cc(O)c3c2[C@H]1CC[C@H]3C [Compound 3, 5,18-epoxy-8-hydroxyserrulat-14-ene]
inhibition at 10 µM (BRPF1-1 (h) bromodomain): -4% | inhibition at 10 µM (BRD4(1) (h) bromodomain): 8% | inhibition at 10 µM (UHRF1 (108-286) (h)): 29% | inhibition at 10 µM (LSD1 (h)): -3% | inhibition at 10 µM (HDAC11 (h)): -130% | inhibition at 10 µM [1]: 8% | effect on cell viability ([2]; all 44 cell lines): no significant effect | % Cell growth ([2]; 4T1 (Breast Cancer)): 99% | % Cell growth ([2]; A375 (Skin)): 100% | % Cell growth ([2]; A-431 (Skin)): 102% | % Cell growth ([2]; A-498 (Kidney Cancer)): 92% | % Cell growth ([2]; ACHN (Kidney Cancer)): 105% | % Cell growth ([2]; B16-F0 (Melanoma)): 116% | % Cell growth ([2]; BT474 (Breast Cancer)): 108% | % Cell growth ([2]; CT26.WT (Colon Cancer)): 103% | % Cell growth ([2]; DLD-1 (Colon Cancer)): 101% | % Cell growth ([2]; H33HJ-JA1 (Lymphoma)): 90% | % Cell growth ([2]; HC-4 (Liver Cancer)): 105% | % Cell growth ([2]; HCT-15 (Colon Cancer)): 116% | % Cell growth ([2]; HCT-116 (Colon Cancer)): 99% | % Cell growth ([2]; HT-29 (Colon Cancer)): 101% | % Cell growth ([2]; Hep3B (Liver Cancer)): 84% | % Cell growth ([2]; HepG2 (Liver Cancer)): 103% | % Cell growth ([2]; K-562 (Leukemia)): 93% | % Cell growth ([2]; KATO III (Stomach)): 105% | % Cell growth [2, 3]: 111% | % Cell growth ([2]; LNCaP (Prostrate Cancer)): 84% | % Cell growth ([2]; MCF7 (Breast Cancer)): 112% | % Cell growth ([2]; MCF-7 AdrR (Breast Cancer)): 101% | % Cell growth ([2]; MDA-MB-231 (Breast Cancer)): 100% | % Cell growth ([2]; MDA-MB-468 (Breast Cancer)): 85% | % Cell growth ([2]; MES-SA (Uterus)): 94% | % Cell growth ([2]; MIA PaCa-2 (Pancreas)): 106% | % Cell growth ([2]; MOLT-4 (Leukemia)): 77% | % Cell growth ([2]; MV-411 (Leukemia)): 76% | % Cell growth [2, 4]: 100% | % Cell growth ([2]; OVCAR-3 (Ovarian Cancer)): 86% | % Cell growth ([2]; PANC-1 (Pancreas)): 116% | % Cell growth ([2]; PC-3 (Prostrate Cancer)): 64% | % Cell growth [2, 5]: 96% | % Cell growth ([2]; Ramos (Lymphoma)): 129% | % Cell growth ([2]; SK-MEL-5 (Melanoma)): 118% | % Cell growth ([2]; SK-N-MC (Brain)): 82% | % Cell growth ([2]; SK-OV-3 (Ovarian Cancer)): 98% | % Cell growth ([2]; SW-620 (Colon Cancer)): 107% | % Cell growth ([2]; T-47D (Breast Cancer)): 119% | % Cell growth ([2]; U937 (Lymphoma)): 105% | % Cell growth ([2]; U-87 MG (Brain)): 111%
